Data reported in US8802597B2, “Herbicidal pyrimidines” (E I du Pont de Nemours and Company, priority 2003, dated 2014).

Assays:
Type in all cases: in vivo
[1] = system: barnyardgrass (Echinochloa crus-galli); assay: Test A pre/postemergence
Procedure, shortened: (§1)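 Seeds sown in loam–sand blend received a preemergence directed soil spray of test chemical in non-phytotoxic solvent with surfactant; same-formulation postemergence spray given concurrently to plants 2–10 cm tall at 1- to 2-leaf stage. Greenhouse ~ten days, then visual injury rating versus untreated controls, 0 (no effect) to 100 (complete control).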

[2] = system: crabgrass (Digitaria sanguinalis); assay: Test A pre/postemergence
Procedure, shortened: as §1

[3] = system: giant foxtail (Setaria faberi); assay: Test A pre/postemergence
Procedure, shortened: as §1

[4] = system: morningglory (Ipomoea spp.); assay: Test A pre/postemergence
Procedure, shortened: as §1

[5] = system: redroot pigweed (Amaranthus retroflexus); assay: Test A pre/postemergence
Procedure, shortened: as §1

[6] = system: velvetleaf (Abutilon theophrasti); assay: Test A pre/postemergence
Procedure, shortened: as §1

[7] = system: barnyardgrass (Echinochloa crus-galli); assay: Test B flooded paddy test; conditions: Flood, scale 0 to 100
Method: (§2) At the same time, plants selected from these crop and weed species and also blackgrass (Alopecurus myosuroides) and wild oat (Avena fatua) were treated with postemergence applications of test chemicals formulated in the same manner. Plants ranged in height from 2 to 18 cm (1- to 4-leaf stage) for postemergence treatments. Plant species in the flooded paddy test consisted of rice (Oryza sativa), umbrella sedge (Cyperus difformis), duck salad (Heteranthera limosa) and barnyardgrass (Echinochloa crus-galli) grown to the 2-leaf stage for testing. Treated plants and controls were maintained in a greenhouse for 13 to 15 days, after which time all species were compared to controls and visually evaluated. Plant response ratings, summarized in Table B, are based on a scale of 0 to 100 where 0 is no effect and 100 is complete control. A dash (-) response means no test result.

[8] = system: duck salad (Heteranthera limosa); assay: Test B flooded paddy test; conditions: Flood, scale 0 to 100
Method: as §2

[9] = system: rice (Oryza sativa); assay: Test B flooded paddy test; conditions: Flood, scale 0 to 100
Method: as §2

[10] = system: umbrella sedge (Cyperus difformis); assay: Test B flooded paddy test; conditions: Flood, scale 0 to 100
Method: as §2

[11] = system: barnyardgrass (Echinochloa crus-galli); assay: Test E flooded paddy water application; conditions: Flood, 21 days, scale 0 to 100 (0 no effect, 100 complete control)
Procedure, shortened: (§3)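 Response scored visually on a 0–100 scale (100 = complete control) at 21 days against untreated pots. Treatment was into paddy water 3 cm deep over silt loam, with plants at the 2.0–2.5-leaf stage, grown under 16-h light at 29.5/26.7 °C day/night.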

[12] = system: bearded (brdd.) sprangletop (Leptochloa fusca ssp. fascicularis); assay: Test E flooded paddy water application; conditions: Flood, 21 days, scale 0 to 100 (0 no effect, 100 complete control)
Procedure, shortened: as §3

[13] = system: ducksalad (Heteranthera limosa); assay: Test E flooded paddy water application; conditions: Flood, 21 days, scale 0 to 100 (0 no effect, 100 complete control)
Procedure, shortened: as §3

[14] = system: early watergrass (Echinochloa oryzoides); assay: Test E flooded paddy water application; conditions: Flood, 21 days, scale 0 to 100 (0 no effect, 100 complete control)
Procedure, shortened: as §3

[15] = system: junglerice (Echinochloa colona); assay: Test E flooded paddy water application; conditions: Flood, 21 days, scale 0 to 100 (0 no effect, 100 complete control)
Procedure, shortened: as §3

[16] = system: late watergrass (Echinochloa oryzicola); assay: Test E flooded paddy water application; conditions: Flood, 21 days, scale 0 to 100 (0 no effect, 100 complete control)
Procedure, shortened: as §3

[17] = system: purple redstem (Ammannia coccinea); assay: Test E flooded paddy water application; conditions: Flood, 21 days, scale 0 to 100 (0 no effect, 100 complete control)
Procedure, shortened: as §3

[18] = system: rice flatsedge (Cyperus iria); assay: Test E flooded paddy water application; conditions: Flood, 21 days, scale 0 to 100 (0 no effect, 100 complete control)
Procedure, shortened: as §3

[19] = system: smallflower umbrella sedge (Cyperus difformis); assay: Test E flooded paddy water application; conditions: Flood, 21 days, scale 0 to 100 (0 no effect, 100 complete control)
Procedure, shortened: as §3

[20] = system: transplanted rice seedlings (Oryza sativa cv. ‘Japonica-M202’); assay: Test E flooded paddy water application; conditions: Flood, 21 days, scale 0 to 100 (0 no effect, 100 complete control)
Procedure, shortened: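 Greenhouse pots of Tama silt loam with weeds and rice at 2.0–2.5-leaf stage, flooded to 3 cm; compounds applied directly into paddy water, depth maintained. Visual rating versus untreated controls after 21 days, 0 (no effect) to 100 (complete control); 29.5/26.7 °C, 16-h photoperiod.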

[21] = system: water seeded rice seedlings (Oryza sativa cv. ‘Japonica-M202’); assay: Test E flooded paddy water application; conditions: Flood, 21 days, scale 0 to 100 (0 no effect, 100 complete control)
Procedure, shortened: as §3

[22] = Postemergence, 125 g ai/ha, 0 to 100 scale (0 no effect, 100 complete control)
[23] = Postemergence, 500 g ai/ha, 0 to 100 scale (0 no effect, 100 complete control)
[24] = Preemergence, 125 g ai/ha, 0 to 100 scale where 0 is no effect and 100 is complete control, approximately ten days
[25] = Preemergence, 500 g ai/ha, 0 to 100 scale where 0 is no effect and 100 is complete control, approximately ten days

CCOC(=O)c1nc(-c2ccc(C(F)(F)F)cc2)nc(N)c1Br [Compound 60]
Plant response rating, Barnyardgrass [1, 22]: 0
Plant response rating, Barnyardgrass [1, 23]: 0
Plant response rating, Barnyardgrass [1, 24]: 0
Plant response rating, Barnyardgrass [1, 25]: 0
Plant response rating, Crabgrass [2, 22]: 0
Plant response rating, Crabgrass [2, 23]: 0
Plant response rating, Crabgrass [2, 24]: 0
Plant response rating, Crabgrass [2, 25]: 0
Plant response rating, Foxtail, Giant [3, 22]: 0
Plant response rating, Foxtail, Giant [3, 23]: 0
Plant response rating, Foxtail, Giant [3, 24]: 0
Plant response rating, Foxtail, Giant [3, 25]: 0
Plant response rating, Morningglory [4, 22]: 0
Plant response rating, Morningglory [4, 23]: 20
Plant response rating, Morningglory [4, 24]: 0
Plant response rating, Morningglory [4, 25]: 0
Plant response rating, Pigweed [5, 22]: 10
Plant response rating, Pigweed [5, 23]: 40
Plant response rating, Pigweed [5, 24]: 0
Plant response rating, Pigweed [5, 25]: 0
Plant response rating, Velvetleaf [6, 22]: 30
Plant response rating, Velvetleaf [6, 23]: 40
Plant response rating, Velvetleaf [6, 24]: 0
Plant response rating, Velvetleaf [6, 25]: 0
Plant response rating, Barnyardgrass ([7]; 125 g ai/ha): 0
Plant response rating, Barnyardgrass ([7]; 500 g ai/ha): 20
Plant response rating, Ducksalad ([8]; 125 g ai/ha): 80
Plant response rating, Ducksalad ([8]; 500 g ai/ha): 90
Plant response rating, Rice ([9]; 125 g ai/ha): 0
Plant response rating, Rice ([9]; 500 g ai/ha): 0
Plant response rating, Sedge, Umbrella ([10]; 125 g ai/ha): 0
Plant response rating, Sedge, Umbrella ([10]; 500 g ai/ha): 30

CCOC(=O)c1nc(-c2ccc(C)cc2)nc(N)c1Br [Compound 61]
Plant response rating, Barnyardgrass [1, 22]: 35
Plant response rating, Barnyardgrass [1, 23]: 60
Plant response rating, Barnyardgrass [1, 24]: 0
Plant response rating, Barnyardgrass [1, 25]: 10
Plant response rating, Crabgrass [2, 22]: 0
Plant response rating, Crabgrass [2, 23]: 5
Plant response rating, Crabgrass [2, 24]: 0
Plant response rating, Crabgrass [2, 25]: 30
Plant response rating, Foxtail, Giant [3, 22]: 0
Plant response rating, Foxtail, Giant [3, 23]: 25
Plant response rating, Foxtail, Giant [3, 24]: 0
Plant response rating, Foxtail, Giant [3, 25]: 10
Plant response rating, Morningglory [4, 22]: 10
Plant response rating, Morningglory [4, 23]: 30
Plant response rating, Morningglory [4, 24]: 0
Plant response rating, Morningglory [4, 25]: 15
Plant response rating, Pigweed [5, 22]: 25
Plant response rating, Pigweed [5, 23]: 50
Plant response rating, Pigweed [5, 24]: 0
Plant response rating, Pigweed [5, 25]: 30
Plant response rating, Velvetleaf [6, 22]: 70
Plant response rating, Velvetleaf [6, 23]: 100
Plant response rating, Velvetleaf [6, 24]: 0
Plant response rating, Velvetleaf [6, 25]: 50
Barnyardgrass plant response rating ([11]; 32 g ai/ha): 0
Barnyardgrass plant response rating ([11]; 64 g ai/ha): 0
Barnyardgrass plant response rating ([11]; 125 g ai/ha): 0
Barnyardgrass plant response rating ([11]; 250 g ai/ha): 0
Barnyardgrass plant response rating ([11]; 500 g ai/ha): 65
Sprangletop, Brdd. plant response rating ([12]; 32 g ai/ha): 35
Sprangletop, Brdd. plant response rating ([12]; 64 g ai/ha): 35
Sprangletop, Brdd. plant response rating ([12]; 125 g ai/ha): 60
Sprangletop, Brdd. plant response rating ([12]; 250 g ai/ha): 65
Sprangletop, Brdd. plant response rating ([12]; 500 g ai/ha): 65
Ducksalad plant response rating ([13]; 32 g ai/ha): 100
Ducksalad plant response rating ([13]; 64 g ai/ha): 100
Ducksalad plant response rating ([13]; 125 g ai/ha): 100
Ducksalad plant response rating ([13]; 250 g ai/ha): 100
Ducksalad plant response rating ([13]; 500 g ai/ha): 100
Watergrass, Early plant response rating ([14]; 32 g ai/ha): 0
Watergrass, Early plant response rating ([14]; 64 g ai/ha): 0
Watergrass, Early plant response rating ([14]; 125 g ai/ha): 0
Watergrass, Early plant response rating ([14]; 250 g ai/ha): 20
Watergrass, Early plant response rating ([14]; 500 g ai/ha): 25
Junglerice plant response rating ([15]; 32 g ai/ha): 0
Junglerice plant response rating ([15]; 64 g ai/ha): 20
Junglerice plant response rating ([15]; 125 g ai/ha): 20
Junglerice plant response rating ([15]; 250 g ai/ha): 25
Junglerice plant response rating ([15]; 500 g ai/ha): 25
Watergrass, Late plant response rating ([16]; 32 g ai/ha): 0
Watergrass, Late plant response rating ([16]; 64 g ai/ha): 20
Watergrass, Late plant response rating ([16]; 125 g ai/ha): 20
Watergrass, Late plant response rating ([16]; 250 g ai/ha): 20
Watergrass, Late plant response rating ([16]; 500 g ai/ha): 25
Redstem plant response rating ([17]; 32 g ai/ha): 65
Redstem plant response rating ([17]; 64 g ai/ha): 80
Redstem plant response rating ([17]; 125 g ai/ha): 80
Redstem plant response rating ([17]; 250 g ai/ha): 100
Redstem plant response rating ([17]; 500 g ai/ha): 100
Flatsedge, Rice plant response rating ([18]; 32 g ai/ha): 0
Flatsedge, Rice plant response rating ([18]; 64 g ai/ha): 0
Flatsedge, Rice plant response rating ([18]; 125 g ai/ha): 40
Flatsedge, Rice plant response rating ([18]; 250 g ai/ha): 40
Flatsedge, Rice plant response rating ([18]; 500 g ai/ha): 95
Sedge, Umbrella plant response rating ([19]; 32 g ai/ha): 20
Sedge, Umbrella plant response rating ([19]; 64 g ai/ha): 75
Sedge, Umbrella plant response rating ([19]; 125 g ai/ha): 85
Sedge, Umbrella plant response rating ([19]; 250 g ai/ha): 95
Sedge, Umbrella plant response rating ([19]; 500 g ai/ha): 100
Rice, Transplanted plant response rating ([20]; 32 g ai/ha): 0
Rice, Transplanted plant response rating ([20]; 64 g ai/ha): 0
Rice, Transplanted plant response rating ([20]; 125 g ai/ha): 0
Rice, Transplanted plant response rating ([20]; 250 g ai/ha): 0
Rice, Transplanted plant response rating ([20]; 500 g ai/ha): 25
Rice, Water Seeded plant response rating ([21]; 32 g ai/ha): 0
Rice, Water Seeded plant response rating ([21]; 64 g ai/ha): 0
Rice, Water Seeded plant response rating ([21]; 125 g ai/ha): 0
Rice, Water Seeded plant response rating ([21]; 250 g ai/ha): 10
Rice, Water Seeded plant response rating ([21]; 500 g ai/ha): 35
